Patent US11932877B2, “Human fibrolamellar hepatocellular carcinomas (hFL-HCCs)” (priority 2015, dated 2024)
“Also recorded” adds a separate entry of the source.

Key:
[1] = system: hFL-HCC cells of TU-2010; test: Spheroid formation assay; assay type: cell-based, human; details: spheroids in serum-free Kubota's Medium, low attachment plates
Description: For secondary spheroid formation assays, the 1st spheroids were collected, subsequently dissociated with NeuroCult Chemical Dissociation Kit ([…] Technologies). Cell suspension was centrifuged at 700 rpm 10 min and resuspended with KM. After 2 weeks, the number of spheroids (100 μm>) were counted.

[2] = system: hFL-HCC cells of TU-2010; test: Cell proliferation assay (WST-1) on monolayer cultures of hFL-HCC cells; assay type: cell-based, human
Description: For cell proliferation assays, 3×10^4 hFL-HCC cells of TU-2010 were depleted of host mesenchymal cells by magnetic sorting of xenotransplantable tumor cell suspension and then were seeded into each well of a 96-well plate and cultured overnight with Kubota's Medium+5% FBS. […] Cell proliferation was evaluated using the Cell Proliferation Reagent WST-1 (Roche Applied Science, Mannheim, Germany). After incubation at 37° C. for 2 hours, the absorbance at 450 nm was measured.

[3] = system: hFL-HCC; test: Treatment of the hFL-HCC patient from whom TU-2010 was derived; assay type: in vivo, human; details: for clinical response of the patient's tumor: one patient, metastatic hFL-HCC; for disease course under treatment / tolerability in the patient: Paclitaxel and thalidomide given together, chosen from sensitivity studies

O=C(CCCCCCC(=O)Nc1ccccc1)NO [SAHA, suberoylanilide hydroxamic acid]
suppression of hFL-HCC survival and growth in spheroid cultures compared with monolayer cultures [1]: even more sensitive to inhibition

CS(=O)(=O)c1ccc(C(=O)Nc2ccc(Cl)c(-c3ccccn3)c2)c(Cl)c1 [GDC-0449, Vismodegib]
suppression of survival and proliferation (growth) of hFL-HCC cells ([2]; 4 μM and especially 20 μM, drug added for 3 days): strongly inhibited; also recorded: suppress survival and proliferation
suppression of hFL-HCC survival and growth in spheroid cultures compared with monolayer cultures [1]: even more sensitive to inhibition; also recorded: far more effective

CNC(=O)c1cc(Oc2ccc(NC(=O)Nc3ccc(Cl)c(C(F)(F)F)c3)cc2)ccn1 [sorafenib]
clinical response of the patient's tumor [3]: limited or no response

CC(=O)O[C@H]1C(=O)[C@@]2(C)[C@H]([C@H](OC(=O)c3ccccc3)[C@]3(O)C[C@H](OC(=O)[C@H](O)[C@@H](NC(=O)c4ccccc4)c4ccccc4)C(C)=C1C3(C)C)[C@]1(OC(C)=O)CO[C@@H]1C[C@@H]2O [Paclitaxel]
disease course under treatment [3]: continued disease progression
tolerability in the patient [3]: poorly tolerated

bevacizumab
clinical response of the patient's tumor [3]: limited or no response

COc1cccc2c1C(=O)c1c(O)c3c(c(O)c1C2=O)C[C@@](O)(C(=O)CO)C[C@@H]3O[C@H]1C[C@H](N)[C@H](O)[C@H](C)O1 [doxorubicin]
clinical response of the patient's tumor [3]: limited or no response

N.N.[Cl][Pt][Cl] [cisplatinum]
clinical response of the patient's tumor [3]: limited or no response

Nc1ccn([C@@H]2O[C@H](CO)[C@@H](O)C2(F)F)c(=O)n1 [gemcitabine]
clinical response of the patient's tumor [3]: limited or no response

O=C(CCCCCCC(=O)NO)NO [SBHA, suberic bis-hydroxamic acid]
inhibitory effect on hFL-HCC cell survival and growth ([2]; 10 μM and 20 μM, drug added for 3 days): strong inhibitory effects
inhibition of hFL-HCC cell growth ([2]; 10 μM and 50 μM): strongly inhibited
suppression of hFL-HCC survival and growth in spheroid cultures compared with monolayer cultures [1]: even more sensitive to inhibition

O=c1[nH]cc(F)c(=O)[nH]1 [5-FU]
clinical response of the patient's tumor [3]: limited or no response

O=C1CCC(N2C(=O)c3ccccc3C2=O)C(=O)N1 (centres unmarked) [thalidomide]
disease course under treatment [3]: continued disease progression
tolerability in the patient [3]: poorly tolerated
clinical response of the patient's tumor [3]: limited or no response
